Experimental data published in ChEMBL document CHEMBL1201862, “PubChem BioAssay data set” (2004).
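Following 48 hours of exposure in 96-well plates, responses at five concentrations were used to interpolate endpoints linearly. GI50: concentration for 50% inhibition of growth.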 Active and inactive are the calls of the source. Rule as the data show it: active = GI50 up to about 1.1 µM and inactive = higher.

How the values were obtained:
Test in all cases: inhibition of tumour cell growth, NCI panel, 48 h
SNB-19 = test system: SNB-19
DU-145 = test system: DU-145
MCF7 = test system: MCF7
NCI-H23 = test system: NCI-H23
UACC-257 = test system: UACC-257
SK-MEL-2 = test system: SK-MEL-2
M14 = test system: M14
SR = test system: SR
CCRF-CEM = test system: CCRF-CEM
HCT-15 = test system: HCT-15
LOX IMVI = test system: LOX IMVI
HCT-116 = test system: HCT-116
OVCAR-3 = test system: OVCAR-3
786-0 = test system: 786-0
NCI-H460 = test system: NCI-H460
SK-MEL-28 = test system: SK-MEL-28
MDA-MB-231 = test system: MDA-MB-231
SW-620 = test system: SW-620
SK-MEL-5 = test system: SK-MEL-5
NCI/ADR-RES = test system: NCI/ADR-RES
PC-3 = test system: PC-3
HL-60 = test system: HL-60
SF-268 = test system: SF-268
KM12 = test system: KM12
Hs-578T = test system: Hs-578T
SF-295 = test system: SF-295
SN12C = test system: SN12C
OVCAR-5 = test system: OVCAR-5
UO-31 = test system: UO-31
RPMI-8226 = test system: RPMI-8226
MDA-MB-435 = test system: MDA-MB-435
UACC-62 = test system: UACC-62
RXF 393 = test system: RXF 393
U-251 = test system: U-251
CAKI-1 = test system: CAKI-1
ACHN = test system: ACHN
COLO 205 = test system: COLO 205
MDA-N = test system: MDA-N
SK-OV-3 = test system: SK-OV-3
SNB-75 = test system: SNB-75
HCC 2998 = test system: HCC 2998
HOP-62 = test system: HOP-62
HOP-92 = test system: HOP-92
A498 = test system: A498
OVCAR-4 = test system: OVCAR-4
T47D = test system: T47D
MOLT-4 = test system: MOLT-4
K562 = test system: K562
A549 = test system: A549
HT-29 = test system: HT-29
TK-10 = test system: TK-10
OVCAR-8 = test system: OVCAR-8
IGROV-1 = test system: IGROV-1
NCI-H226 = test system: NCI-H226
NCI-H522 = test system: NCI-H522
Malme-3M = test system: Malme-3M
EKVX = test system: EKVX
SF-539 = test system: SF-539

CN1C(=O)C(CC=O)(C(C)(C)C)c2ccccc21 (centres undefined)
GI50 (SNB-19): > 100 µM (inactive) | GI50 (DU-145): 56.4 µM (inactive) | GI50 (MCF7): 69.7 µM (inactive) | GI50 (NCI-H23): > 100 µM (inactive) | GI50 (UACC-257): > 100 µM (inactive) | GI50 (SK-MEL-2): > 100 µM (inactive) | GI50 (M14): > 100 µM (inactive) | GI50 (SR): > 100 µM (inactive) | GI50 (CCRF-CEM): 60 µM (inactive) | GI50 (HCT-15): 90.6 µM | GI50 (LOX IMVI): 37.8 µM (inactive) | GI50 (HCT-116): 76.4 µM (inactive) | GI50 (OVCAR-3): > 100 µM (inactive) | GI50 (786-0): 41.8 µM (inactive) | GI50 (NCI-H460): > 100 µM (inactive) | GI50 (SK-MEL-28): > 100 µM (inactive) | GI50 (MDA-MB-231): > 100 µM (inactive) | GI50 (SW-620): 79.6 µM (inactive) | GI50 (SK-MEL-5): > 100 µM (inactive) | GI50 (NCI/ADR-RES): > 100 µM (inactive) | GI50 (PC-3): > 100 µM (inactive) | GI50 (HL-60): > 100 µM (inactive) | GI50 (SF-268): > 100 µM (inactive) | GI50 (KM12): > 100 µM (inactive) | GI50 (Hs-578T): 56.6 µM (inactive) | GI50 (SF-295): > 100 µM (inactive) | GI50 (SN12C): > 100 µM (inactive) | GI50 (OVCAR-5): > 100 µM (inactive) | GI50 (UO-31): 64 µM (inactive) | GI50 (RPMI-8226): 37.9 µM (inactive) | GI50 (MDA-MB-435): 30.8 µM (inactive) | GI50 (UACC-62): 93.5 µM (inactive) | GI50 (RXF 393): > 100 µM (inactive) | GI50 (U-251): > 100 µM (inactive) | GI50 (CAKI-1): 54.7 µM (inactive) | GI50 (ACHN): 47.2 µM (inactive) | GI50 (COLO 205): > 100 µM (inactive) | GI50 (MDA-N): 33.3 µM (inactive) | GI50 (SK-OV-3): > 100 µM (inactive) | GI50 (SNB-75): 99.5 µM (inactive) | GI50 (HCC 2998): > 100 µM (inactive) | GI50 (HOP-62): > 100 µM (inactive) | GI50 (HOP-92): 69 µM (inactive) | GI50 (A498): > 100 µM (inactive) | GI50 (OVCAR-4): > 100 µM (inactive) | GI50 (T47D): 47.1 µM (inactive) | GI50 (MOLT-4): 56.8 µM (inactive) | GI50 (K562): 91.6 µM (inactive) | GI50 (A549): > 100 µM (inactive)

COc1ccccc1N/C(=C\C(=O)C(=O)NC12CC3CC(CC(C3)C1)C2)c1ccccc1
GI50 (HT-29): > 10 µM (inactive) | GI50 (DU-145): > 10 µM (inactive) | GI50 (TK-10): > 10 µM (inactive) | GI50 (MCF7): > 10 µM (inactive) | GI50 (NCI-H23): > 10 µM (inactive) | GI50 (UACC-257): 9.46 µM (inactive) | GI50 (SK-MEL-2): > 10 µM (inactive) | GI50 (M14): > 10 µM (inactive) | GI50 (SR): > 10 µM (inactive) | GI50 (CCRF-CEM): > 10 µM (inactive) | GI50 (HCT-15): > 10 µM | GI50 (LOX IMVI): > 10 µM (inactive) | GI50 (OVCAR-3): 5.31 µM (inactive) | GI50 (786-0): > 10 µM (inactive) | GI50 (NCI-H460): > 10 µM (inactive) | GI50 (SK-MEL-28): > 10 µM (inactive) | GI50 (MDA-MB-231): > 10 µM (inactive) | GI50 (SW-620): > 10 µM (inactive) | GI50 (SK-MEL-5): > 10 µM (inactive) | GI50 (NCI/ADR-RES): > 10 µM (inactive) | GI50 (PC-3): 7.55 µM (inactive) | GI50 (HL-60): > 10 µM (inactive) | GI50 (SF-268): > 10 µM (inactive) | GI50 (OVCAR-8): > 10 µM (inactive) | GI50 (KM12): > 10 µM (inactive) | GI50 (Hs-578T): > 10 µM (inactive) | GI50 (IGROV-1): > 10 µM (inactive) | GI50 (NCI-H226): > 10 µM (inactive) | GI50 (SF-295): > 10 µM (inactive) | GI50 (SN12C): > 10 µM (inactive) | GI50 (NCI-H522): > 10 µM (inactive) | GI50 (Malme-3M): 3.36 µM (inactive) | GI50 (OVCAR-5): > 10 µM (inactive) | GI50 (UO-31): 7.73 µM (inactive) | GI50 (RPMI-8226): > 10 µM (inactive) | GI50 (MDA-MB-435): 7.21 µM (inactive) | GI50 (RXF 393): > 10 µM (inactive) | GI50 (EKVX): > 10 µM (inactive) | GI50 (U-251): > 10 µM (inactive) | GI50 (CAKI-1): > 10 µM (inactive) | GI50 (ACHN): > 10 µM (inactive) | GI50 (COLO 205): > 10 µM (inactive) | GI50 (MDA-N): > 10 µM (inactive) | GI50 (SK-OV-3): > 10 µM (inactive) | GI50 (SNB-75): > 10 µM (inactive) | GI50 (HCC 2998): > 10 µM (inactive) | GI50 (HOP-62): > 10 µM (inactive) | GI50 (A498): > 10 µM (inactive) | GI50 (OVCAR-4): 9.82 µM (inactive) | GI50 (T47D): > 10 µM (inactive) | GI50 (MOLT-4): > 10 µM (inactive) | GI50 (SF-539): > 10 µM (inactive) | GI50 (K562): > 10 µM (inactive)

c1ccc([P+](Cc2ccc(C[P+](c3ccccc3)(c3ccccc3)c3ccccc3)cc2)(c2ccccc2)c2ccccc2)cc1
GI50 (SNB-19): 26.4 µM (inactive) | GI50 (HT-29): 25 µM (inactive) | GI50 (DU-145): 86.3 µM (inactive) | GI50 (TK-10): 81.7 µM (inactive) | GI50 (MCF7): 51.4 µM (inactive) | GI50 (NCI-H23): 32.7 µM (inactive) | GI50 (UACC-257): 37.1 µM (inactive) | GI50 (M14): 58.2 µM (inactive) | GI50 (SR): > 100 µM (inactive) | GI50 (CCRF-CEM): 71 µM (inactive) | GI50 (HCT-15): > 100 µM | GI50 (LOX IMVI): 14.6 µM (inactive) | GI50 (HCT-116): 12.4 µM (inactive) | GI50 (OVCAR-3): 27.7 µM (inactive) | GI50 (786-0): 47.5 µM (inactive) | GI50 (NCI-H460): 12.4 µM (inactive) | GI50 (SK-MEL-28): 67.9 µM (inactive) | GI50 (MDA-MB-231): 61.8 µM (inactive) | GI50 (SW-620): 72.4 µM (inactive) | GI50 (SK-MEL-5): 27.2 µM (inactive) | GI50 (NCI/ADR-RES): > 100 µM (inactive) | GI50 (PC-3): 40.9 µM (inactive) | GI50 (HL-60): 55.1 µM (inactive) | GI50 (SF-268): > 100 µM (inactive) | GI50 (OVCAR-8): 45.8 µM (inactive) | GI50 (KM12): 41.8 µM (inactive) | GI50 (Hs-578T): 32.4 µM (inactive) | GI50 (IGROV-1): 20.4 µM (inactive) | GI50 (NCI-H226): > 100 µM (inactive) | GI50 (SF-295): 35.6 µM (inactive) | GI50 (SN12C): 67.5 µM (inactive) | GI50 (NCI-H522): 62.2 µM (inactive) | GI50 (Malme-3M): 52.7 µM (inactive) | GI50 (OVCAR-5): 88.5 µM (inactive) | GI50 (UO-31): 18.4 µM (inactive) | GI50 (RPMI-8226): 43 µM (inactive) | GI50 (MDA-MB-435): 42.7 µM (inactive) | GI50 (UACC-62): 44.2 µM (inactive) | GI50 (RXF 393): 61.4 µM (inactive) | GI50 (EKVX): 21.8 µM (inactive) | GI50 (U-251): 21.2 µM (inactive) | GI50 (CAKI-1): > 100 µM (inactive) | GI50 (ACHN): > 100 µM (inactive) | GI50 (COLO 205): 31.2 µM (inactive) | GI50 (MDA-N): 31 µM (inactive) | GI50 (SK-OV-3): > 100 µM (inactive) | GI50 (SNB-75): 29.6 µM (inactive) | GI50 (HCC 2998): 91 µM (inactive) | GI50 (HOP-62): 69.5 µM (inactive) | GI50 (HOP-92): 26.3 µM (inactive) | GI50 (A498): > 100 µM (inactive) | GI50 (OVCAR-4): 48.1 µM (inactive) | GI50 (T47D): > 100 µM (inactive) | GI50 (MOLT-4): > 100 µM (inactive) | GI50 (SF-539): 31.2 µM (inactive) | GI50 (K562): 9.66 µM (inactive) | GI50 (A549): 45.7 µM (inactive)
